# Results reported in US10653637B2, “Preventives or remedies for hepatopathy” (priority 2003, dated 2020).
# Legend:
# rat hepatocytes = experiment: Rat hepatocyte proliferation promoting activity (ki-67 immunostaining) after one week of repeated administration; assay type: in vivo; conditions: ghrelin 10 μg/kg i.v. two times a day for 7 days; for Positive ratio (ki-67): % printed in b244 only; for Number of ki-67 positive cells: among 231±27 hepatocytes, eight places of liver section
# Method: Rat hepatocyte proliferation promoting activity by repeated administration of ghrelin for one week
# 10 μg/kg of ghrelin was repeatedly administered intravenously to Wistar male rats two times a day for 7 days and, on the next day from administration completion, liver was isolated and fixed. Then, ki-67 protein as a peptide which is expressed at cell growth phase was immunostained.
# For quantatively assessing hepatocyte proliferation activity by ghrelin, eight places of the liver section of one case of the physiological saline-administered group and one case of the ghrelin-administered group were arbitrarily selected, and among about 200 hepatocytes in a visual field, the number of ki-67 positive cells was counted under a microscope.
# [1] = test system: DMN-induced hepatic fibrosis rat; experiment: Ghrelin administration in DMN-induced hepatic fibrosis/liver cirrhosis model (organ weight, hematology, serum biochemistry); assay type: in vivo; conditions: 35 days, DMN treatment
# Method: Ghrelin administration experiment using DMN-induced hepatic fibrosis/liver cirrhosis model (Estimation of various parameters)
# According to the same manner as that of Example 1 except that administration days were changed from 8 weeks to 35 days, an experiment was performed, and the effect of rat ghrelin on hepatopathy was estimated from a viewpoint of organ weight, hematology and serum biochemistry. A DMN-untreated group (normal rat) was used as a control group.
# HGF mRNA = experiment: Expression of HGF mRNA in liver (real time RT-PCR); assay type: in vivo, rat; conditions: ghrelin 30 μg/kg s.c., DMN-induced hepatic fibrosis rats
# Method: (§1) Amount of expression of hepatocyte proliferation marker (PCNA) and HGF
# (§2) Amounts of expression of a PCNA mRNA and a HGF mRNA in the liver after subcutaneous injection of a physiological saline and ghrelin to DMN-induced hepatic fibrosis rats were measured by the real time RT-PCR method.
# PCNA mRNA = experiment: Expression of hepatocyte proliferation marker PCNA mRNA in liver (real time RT-PCR); assay type: in vivo, rat; conditions: ghrelin 30 μg/kg s.c., DMN-induced hepatic fibrosis rats
# Method: as §1, §2
# Wistar male rats = experiment: Organ blood flow (microspheres); assay type: in vivo, rat; conditions: ghrelin 30 μg/kg s.c., under anesthesia; for Hepatic blood flow / Spleen blood flow / Stomach blood flow: mean ± standard deviation, 6 rats per group
# [2] = test system: Wistar male rats after 70% hepatectomy; experiment: Liver weight after hepatectomy under 40% restricted diet; assay type: in vivo, rat; conditions: ghrelin 30 μg/kg s.c. two times a day for 3 days after 70% hepatectomy, four days after
# Method: Liver Weight after Hepatectomy
# Seventy % of liver was excised under anesthesia in Wistar male rats, and 30 μg/kg of ghrelin or a physiological saline was subcutaneously injected two times a day for 3 days under 40% restricted diet. Four days after, rat liver was isolated, and the liver weight was measured.
# [3] = test system: DMN-induced hepatic fibrosis/liver cirrhosis model; experiment: Ghrelin administration in DMN-induced hepatic fibrosis/liver cirrhosis model (survival rate); assay type: in vivo, rat; conditions: DMN-treated rats
# Method: Ghrelin administration experiment using dimethylnitrosoamine (DMN)-induced hepatic fibrosis/liver cirrhosis model (Estimation of survival rate).
# A hepatic fibrosis/liver cirrhosis rat model to be induced by DMN was prepared, rat ghrelin was subcutaneously injected, and the effect on hepatopathy was investigated.
# Upon use, a dilution in which DMN (manufactured by Wako Pure Chemical Industries, Ltd.) was diluted with a physiological saline solution (manufactured by Otsuka Pharmaceutical Co., Ltd., physiological saline solution described in the Japanese Pharmacopoeia) to 1% concentration (v/v) was prepared, and this was intraperitoneafly administered to male rats (4 weeks old) so that DMN became 1 mL/kg. Administration was performed once a day, for consecutive three days in one week, and administration was repeated for 6 weeks, and the first time administration date was regarded as day 1.
# Rat ghrelin (purchased from Peptide Institute Inc., Japan) was added to 5 weight % mannitol as a solvent to a concentration of 1 mg/mL, this was dispensed every necessary amount per one time, and freezing-stored at about −80° C. until its use. Upon use, this was thawed, and diluted with a physiological saline solution to a concentration of 30 μg/mL and 3 μg/mL to obtain a dosing solution. […]
# [4] = ghrelin 3 μg/kg s.c. once a day
# [5] = ghrelin 3 μg/kg s.c. once a day, mean±S.E.
# [6] = ghrelin 30 μg/kg s.c. once a day
# [7] = ghrelin 30 μg/kg s.c. once a day, listed as ghrelin
# [8] = ghrelin 30 μg/kg s.c. once a day, mean±S.E.
# [9] = ghrelin 30 μg/kg s.c. once a day, mean±S.E., listed as ghrelin
# [10] = ghrelin administration, dose not given
substance,measurement,setting,value
Ghrelin,Positive ratio (ki-67),rat hepatocytes,9.28 ± 3.26%
same,Positive ratio (ki-67),rat hepatocytes; listed as ghrelin,9.28±3.26%
same,Number of ki-67 positive cells,rat hepatocytes,20.9 ± 6.1
same,Number of ki-67 positive cells,rat hepatocytes; listed as ghrelin,20.9±6.1
same,Ascites (appearance frequency),[1]; [4],2/7
same,Erythrocyte,[1]; [4],6.4 ± 0.2 ×10^6/μL
same,Fibrinogen,[1]; [4],166 ± 9.5 mg/dL
same,Hepaplastin time,[1]; [4],86.2 ± 11.8 s
same,Leukocyte,[1]; [4],7.3 ± 0.6 ×10^3/μL
same,Platelet,[1]; [4],52.3 ± 6.2 ×10^4/μL
same,Spleen weight increase as compared with normal rats,[1]; [4],more than 2 fold
same,Δ liver weight,[1]; [5],13.6 ± 0.7 g
same,Δ spleen weight,[1]; [5],2.20 ± 0.08 g
same,Δ liver weight (g),"[1]; ghrelin 3 μg/kg s.c. once a day, mean±S.E., listed as ghrelin",reduced as compared with a normal rat
same,Ascites (appearance frequency),[1]; [6],0/7
same,Erythrocyte,[1]; [6],6.8 ± 0.3 ×10^6/μL
same,Fibrinogen,[1]; [6],207 ± 16.3 mg/dL
same,Hepaplastin time,[1]; [6],77.8 ± 3.2 s
same,Leukocyte,[1]; [6],6.6 ± 1.2 ×10^3/μL
same,Platelet,[1]; [6],89.6 ± 5.5 ×10^4/μL
same,Ascites (appearance frequency),[1]; [7],ascites did not appear
same,Erythrocyte,[1]; [7],returned to a normal level
same,Leukocyte,[1]; [7],returned to a normal level
same,Platelet,[1]; [7],the number of platelets was recovered
same,Δ liver weight,[1]; [8],14.3 ± 0.6 g
same,Δ spleen weight,[1]; [8],1.83 ± 0.12 g
same,Δ liver weight (g),[1]; [9],reduction in the liver weight was suppressed
same,Δ spleen weight (g),[1]; [9],increase was slightly suppressed
same,hepaplastin time (in words),[1]; [10],tended to be normalized
same,serum fibrinogen (in words),[1]; [10],a tendency that fibrinogen was recovered to normalization
same,HGF mRNA (amount of expression in the liver),HGF mRNA,2.025 ± 0.595
same,HGF mRNA (amount of expression in the liver),HGF mRNA; listed as ghrelin,increased
same,PCNA mRNA (amount of expression in the liver),PCNA mRNA,2.083 ± 0.533
same,PCNA mRNA (amount of expression in the liver),PCNA mRNA; listed as ghrelin,tended to be increased
same,Hepatic blood flow,Wistar male rats,1.049 ± 0.414 mL/min/kg
same,Spleen blood flow,Wistar male rats,1.099 ± 0.264 mL/min/kg
same,Stomach blood flow,Wistar male rats,1.064 ± 0.486 mL/min/kg
same,Hepatic blood flow,Wistar male rats; listed as ghrelin,increased
same,Spleen blood flow,Wistar male rats; listed as ghrelin,increased
same,Stomach blood flow,Wistar male rats; listed as ghrelin,increased
same,blood flow in jejunum,Wistar male rats; versus physiological saline,a tendency of blood flow increase
same,Liver weight,[2],2.464 ± 0.133
same,Liver weight,[2]; listed as ghrelin,the liver weight was increased
same,survived at 56 days,[3]; ghrelin 3 μg/kg s.c. once a day from day 1 over 8 weeks,75%
same,survival at 56 days,[3]; ghrelin 30 μg/kg s.c. once a day from day 1 over 8 weeks,all cases survived
